Reference: PMC4422947 (Acta Pharmacologica Sinica, 2015)
pIC50: −log10 of the molar value.

Legend:
[1] = format: in vivo, rat; details: after iv or po administration of tanshinol; data not shown
CYP2A6 = molecular target: T1, CYP2A6 (Homo sapiens, UniProt P11509); experiment: Inhibition of cDNA-expressed human CYP2A6; format: in vitro ADME; details: CYP2A6, coumarin 7-hydroxylation
T1 sequence (P11509 1-494): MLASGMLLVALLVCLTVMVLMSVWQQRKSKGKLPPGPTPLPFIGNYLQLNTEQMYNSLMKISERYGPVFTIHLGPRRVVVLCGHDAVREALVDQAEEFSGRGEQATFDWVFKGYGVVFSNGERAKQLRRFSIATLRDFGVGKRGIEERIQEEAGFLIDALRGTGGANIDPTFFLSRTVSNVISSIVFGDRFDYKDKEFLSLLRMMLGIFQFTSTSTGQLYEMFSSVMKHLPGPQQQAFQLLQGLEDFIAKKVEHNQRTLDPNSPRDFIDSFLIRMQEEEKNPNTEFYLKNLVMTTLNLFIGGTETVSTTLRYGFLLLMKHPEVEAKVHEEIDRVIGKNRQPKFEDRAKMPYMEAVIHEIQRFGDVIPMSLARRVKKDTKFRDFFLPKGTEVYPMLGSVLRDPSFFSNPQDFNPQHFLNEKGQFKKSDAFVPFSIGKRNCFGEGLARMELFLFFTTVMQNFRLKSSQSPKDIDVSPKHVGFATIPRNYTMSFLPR

CYP2B6 = molecular target: T2, CYP2B6 (Homo sapiens, UniProt P20813); experiment: Inhibition of cDNA-expressed human CYP2B6; format: in vitro ADME; details: CYP2B6, 7-ethoxy-4-trifluoromethylcoumarin O-deethylation
T2 sequence (P20813 1-491): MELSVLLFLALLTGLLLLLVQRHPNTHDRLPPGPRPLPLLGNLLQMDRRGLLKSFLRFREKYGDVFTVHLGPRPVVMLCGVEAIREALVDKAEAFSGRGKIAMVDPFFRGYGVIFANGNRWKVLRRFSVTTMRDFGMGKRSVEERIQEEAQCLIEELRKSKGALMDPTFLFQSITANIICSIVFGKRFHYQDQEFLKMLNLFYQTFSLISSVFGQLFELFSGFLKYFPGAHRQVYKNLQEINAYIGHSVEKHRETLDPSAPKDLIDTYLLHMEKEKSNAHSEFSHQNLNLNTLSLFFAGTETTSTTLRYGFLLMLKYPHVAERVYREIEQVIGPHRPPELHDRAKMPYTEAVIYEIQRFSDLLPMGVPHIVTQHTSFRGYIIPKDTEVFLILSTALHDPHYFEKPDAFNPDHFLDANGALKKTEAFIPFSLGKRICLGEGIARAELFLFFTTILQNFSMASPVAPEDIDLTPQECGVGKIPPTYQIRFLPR

8-O-methyltanshinol
Detection in rat samples [1]: not detected

N[C@@H]1C[C@H]1c1ccccc1 (racemic) [tranylcypromine]
pIC50 (CYP2A6): 7.15 | pIC50 (CYP2B6): 5.23

COC(=O)C(O)Cc1ccc(O)c(O)c1 (stereo not shown) [tanshinol methyl ester]
Detection in rat samples [1]: not detected
